This test deals with mouse neuroblastoma N2a cells. The experiment in a line: Rescue of Aβ42-induced neurotoxicity in N2a cells. The test is classed as cell-based. The note with it: N2a cells treated with Aβ42 and compound.

As to `COc1cc(/C=C/C(=O)CC(=O)/C=C/c2ccc(O)c(OC)c2)ccc1O` [curcumin], the “effect on Aβ42-induced neurotoxicity” value is recorded as “dramatically increased the Aβ-induced cytotoxicity”.

The values above are taken from publication PMC11445708 (Dalton transactions (Cambridge, England : 2003), 2024).
